Source: ChEMBL document CHEMBL1201862, “PubChem BioAssay data set” (2004)
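The compound was tested at five concentrations on cells cultured in 96-well plates, with a 48-hour exposure period. GI50 = concentration required for 50% inhibition of growth.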 The source made the active and inactive calls. Cut-off read from the data, not from the text of the source: active = GI50 up to about 1.1 µM and inactive = higher.

Legend:
Assay in all cases: inhibition of tumour cell growth, NCI panel, 48 h
786-0 = test system: 786-0
A498 = test system: A498
A549 = test system: A549
ACHN = test system: ACHN
CAKI-1 = test system: CAKI-1
CCRF-CEM = test system: CCRF-CEM
COLO 205 = test system: COLO 205
DLD-1 = test system: DLD-1
DMS-273 = test system: DMS-273
EKVX = test system: EKVX
HCC 2998 = test system: HCC 2998
HCT-116 = test system: HCT-116
HCT-15 = test system: HCT-15
HL-60 = test system: HL-60
HOP-18 = test system: HOP-18
HOP-62 = test system: HOP-62
HOP-92 = test system: HOP-92
HT-29 = test system: HT-29
IGROV-1 = test system: IGROV-1
K562 = test system: K562
KM-20L2 = test system: KM-20L2
KM12 = test system: KM12
LOX IMVI = test system: LOX IMVI
LXFL 529 = test system: LXFL 529
M14 = test system: M14
M19-MEL = test system: M19-MEL
MOLT-4 = test system: MOLT-4
Malme-3M = test system: Malme-3M
NCI-H226 = test system: NCI-H226
NCI-H23 = test system: NCI-H23
NCI-H460 = test system: NCI-H460
NCI-H522 = test system: NCI-H522
OVCAR-3 = test system: OVCAR-3
OVCAR-4 = test system: OVCAR-4
OVCAR-5 = test system: OVCAR-5
OVCAR-8 = test system: OVCAR-8
RXF 393 = test system: RXF 393
RXF 631 = test system: RXF 631
SF-268 = test system: SF-268
SF-295 = test system: SF-295
SF-539 = test system: SF-539
SK-MEL-28 = test system: SK-MEL-28
SK-MEL-2 = test system: SK-MEL-2
SK-MEL-5 = test system: SK-MEL-5
SK-OV-3 = test system: SK-OV-3
SN12C = test system: SN12C
SNB-19 = test system: SNB-19
SNB-75 = test system: SNB-75
SNB-78 = test system: SNB-78
SR = test system: SR
SW-620 = test system: SW-620
TK-10 = test system: TK-10
U-251 = test system: U-251
UACC-257 = test system: UACC-257
UACC-62 = test system: UACC-62
UO-31 = test system: UO-31
XF498 = test system: XF498
DMS-114 = test system: DMS-114
RPMI-8226 = test system: RPMI-8226

Measured: GI50

CCOC(=O)C1=C(Nc2ccccc2)SC/C1=N\NC(=O)Cc1ccccc1
> 100 µM: HCT-15
inactive: 786-0 > 100 µM | A498 > 100 µM | A549 > 100 µM | ACHN > 100 µM | CAKI-1 > 100 µM | CCRF-CEM > 100 µM | COLO 205 > 100 µM | DLD-1 > 100 µM | DMS-273 > 100 µM | EKVX > 100 µM | HCC 2998 > 100 µM | HCT-116 > 100 µM | HL-60 > 100 µM | HOP-18 > 100 µM | HOP-62 > 100 µM | HOP-92 > 100 µM | HT-29 > 100 µM | IGROV-1 > 100 µM | K562 > 100 µM | KM-20L2 > 100 µM | KM12 > 100 µM | LOX IMVI > 100 µM | LXFL 529 > 100 µM | M14 > 100 µM | M19-MEL > 100 µM | MOLT-4 > 100 µM | Malme-3M > 100 µM | NCI-H226 > 100 µM | NCI-H23 > 100 µM | NCI-H460 > 100 µM | NCI-H522 > 100 µM | OVCAR-3 > 100 µM | OVCAR-4 > 100 µM | OVCAR-5 > 100 µM | OVCAR-8 > 100 µM | RXF 393 > 100 µM | RXF 631 > 100 µM | SF-268 > 100 µM | SF-295 > 100 µM | SF-539 > 100 µM | SK-MEL-28 > 100 µM | SK-MEL-2 > 100 µM | SK-MEL-5 > 100 µM | SK-OV-3 > 100 µM | SN12C > 100 µM | SNB-19 > 100 µM | SNB-75 > 100 µM | SNB-78 > 100 µM | SR > 100 µM | SW-620 > 100 µM | TK-10 > 100 µM | U-251 > 100 µM | UACC-257 > 100 µM | UACC-62 > 100 µM | UO-31 > 100 µM | XF498 > 100 µM

CCOC(=O)/C(O)=C(/C(=O)OC)c1ccc(Cl)cc1
inactive: 786-0 > 100 µM | A498 > 100 µM | A549 > 100 µM | ACHN > 100 µM | CAKI-1 > 100 µM | CCRF-CEM > 100 µM | COLO 205 > 100 µM | DLD-1 > 100 µM | DMS-114 > 100 µM | DMS-273 > 100 µM | EKVX > 100 µM | HCC 2998 > 100 µM | HOP-62 > 100 µM | HT-29 > 100 µM | IGROV-1 > 100 µM | K562 > 100 µM | KM-20L2 > 100 µM | KM12 > 100 µM | LOX IMVI > 100 µM | LXFL 529 > 100 µM | M14 > 100 µM | M19-MEL > 100 µM | MOLT-4 > 100 µM | Malme-3M > 100 µM | NCI-H23 > 100 µM | NCI-H460 > 100 µM | OVCAR-3 > 100 µM | OVCAR-4 > 100 µM | OVCAR-5 > 100 µM | OVCAR-8 > 100 µM | RPMI-8226 > 100 µM | RXF 631 > 100 µM | SF-268 > 100 µM | SF-295 > 100 µM | SF-539 > 100 µM | SK-MEL-28 > 100 µM | SK-MEL-2 > 100 µM | SK-MEL-5 > 100 µM | SK-OV-3 > 100 µM | SN12C > 100 µM | SNB-19 > 100 µM | SNB-75 > 100 µM | SNB-78 > 100 µM | SW-620 > 100 µM | TK-10 > 100 µM | U-251 > 100 µM | UACC-257 > 100 µM | UACC-62 > 100 µM | UO-31 > 100 µM | XF498 > 100 µM
> 100 µM: HCT-15
